What all share (assay type): functional
In experiment [1] the test system is Bemisia tabaci. Description: Insecticidal activity against Bemisia tabaci Bupro-SEL (sweet potato whitefly) from 20 generation buprofezin resistance assessed as mortality measured after 18 to 20 days.
In experiment [2] the test system is Bemisia tabaci. Description: Insecticidal activity against Bemisia tabaci Bupro-SEL (sweet potato whitefly) from 10 generation buprofezin resistance assessed as mortality measured after 18 to 20 days.
In experiment [3] the test system is Bemisia tabaci. As to the kind of experiment: Insecticidal activity against Bemisia tabaci UNSEL G11 (sweet potato whitefly) from 11 generation buprofezin resistance assessed as mortality measured after 18 to 20 days.
Experiment [4] concerns Bemisia tabaci. As to the kind of experiment: Insecticidal activity against Bemisia tabaci (sweet potato whitefly) from one generation buprofezin resistance G1 assessed as mortality measured after 18 to 20 days.
In experiment [5] the test system is Bemisia tabaci. As to the kind of experiment: Insecticidal activity against Bemisia tabaci (sweet potato whitefly) susceptible Lab-PK assessed as mortality measured after 18 to 20 days.
For experiment [6], the system named is Bemisia tabaci. Description: Insecticidal activity against Bemisia tabaci F1 (sweet potato whitefly) pooled/Bupro-SEL hybrid assessed as mortality measured after 18 to 20 days.
In experiment [7] the test system is Bemisia tabaci. As to the kind of experiment: Insecticidal activity against Bemisia tabaci F1 (sweet potato whitefly) pooled assessed as mortality measured after 18 to 20 days.
In experiment [8] the test system is Bemisia tabaci. As to the kind of experiment: Insecticidal activity against Bemisia tabaci Bupro-SEL (sweet potato whitefly) male/Lab-PK female hybrid assessed as mortality measured after 18 to 20 days.
In experiment [9] the test system is Bemisia tabaci. As to the kind of experiment: Insecticidal activity against Bemisia tabaci Bupro-SEL (sweet potato whitefly) female/Lab-PK male hybrid assessed as mortality measured after 18 to 20 days.

As for `C/C(=N\C#N)N(C)Cc1ccc(Cl)nc1` [ACETAMIPRID], the LC50 is given as 0.4 ugAi/ml in the experiment on Bemisia tabaci [1]; 4.04 ugAi/ml with Bemisia tabaci [2]; 0.36 ugAi/ml in the experiment with Bemisia tabaci [3]; 2.21 ugAi/ml in the experiment with Bemisia tabaci [4]; 0.39 ugAi/ml with Bemisia tabaci [5].
As for `CC(C)N1C(=O)N(c2ccccc2)CS/C1=N\C(C)(C)C` [BUPROFEZIN], the LC50 is listed as 62.6 ugAi/ml with Bemisia tabaci [6]; 4.86 ugAi/ml in the experiment with Bemisia tabaci [7]; 4.41 ugAi/ml with Bemisia tabaci [8]; 5.11 ugAi/ml in the experiment on Bemisia tabaci [9]; 115.2 ugAi/ml in the experiment on Bemisia tabaci [1]; 1400 ugAi/ml in the experiment with Bemisia tabaci [2]. For the same compound, the LC50 with Bemisia tabaci [3] is listed as 0.25 ugAi/ml; in the experiment on Bemisia tabaci [4], 1.41 ugAi/ml; with Bemisia tabaci [5], 0.2 ugAi/ml.
With `O=[N+]([O-])/N=C1\NCCN1Cc1ccc(Cl)nc1` [IMIDACLOPRID], the LC50 in the experiment with Bemisia tabaci [1] turned out to be 0.17 ugAi/ml; in the experiment with Bemisia tabaci [2], 2.18 ugAi/ml; in the experiment on Bemisia tabaci [3], 0.2 ugAi/ml; in the experiment with Bemisia tabaci [4] it was 1.29 ugAi/ml; in the experiment on Bemisia tabaci [5], 0.09 ugAi/ml.
For `CC(COc1ccc(Oc2ccccc2)cc1)Oc1ccccn1` (centres undefined) [PYRIPROXYFEN] the same measures were 1.63 ugAi/ml, 51.54 ugAi/ml, 0.52 ugAi/ml, 1.81 ugAi/ml and 0.6 ugAi/ml.
For `CCOC(=O)OC1=C(c2cc(C)ccc2C)C(=O)N[C@]12CC[C@@H](OC)CC2` [SPIROTETRAMAT] the same measures were 0.11 ugAi/ml, 1.04 ugAi/ml, 0.1 ugAi/ml, 0.7 ugAi/ml and 0.17 ugAi/ml.

Source of the values: ChEMBL document CHEMBL3046142, “Cross resistance, genetic analysis and stability of resistance to buprofezin in cotton whitefly, Bemisia tabaci (Homoptera: Aleyrodidae)” (2012).
